Test [1] addresses Ribosomal protein S6 kinase alpha-1 (Homo sapiens, UniProt Q15418). As to the kind of experiment: Binding affinity to recombinant full length human N-terminal GST-tagged RPS6KA1 expressed in baculovirus expression system using S6K peptide as substrate incubated for 1 hr by TR-FRET assay.
The target in test [2] is Serine/threonine-protein kinase 32B (Homo sapiens, UniProt Q9NY57). As to the kind of experiment: Binding affinity to recombinant full-length N-terminal His-FLAG-GST-tagged STK32B (unknown origin) expressed in baculovirus infected Sf9 insect cells incubated for 1 hr by TR-FRET assay.
Test [3] concerns the target Fibroblast growth factor receptor 4 (Homo sapiens, UniProt P22455). Put plainly: Binding affinity to recombinant N-terminal His-FLAG-GST-tagged FGFR4 (unknown origin) (460 to 802 residues) expressed in baculovirus infected Sf9 insect cells incubated for 1 hr by TR-FRET assay. (In general: Time-resolved FRET reads energy transfer from a long-lived donor to a nearby acceptor.)

In test [4] the target is Fibroblast growth factor receptor 3 (Homo sapiens, UniProt P22607). As to the kind of experiment: Binding affinity to recombinant N-terminal His-FLAG-GST-tagged FGFR3 (unknown origin) (436 to 806 residues) expressed in baculovirus infected Sf9 insect cells incubated for 1 hr by TR-FRET assay.
Test [5] concerns the target Interleukin-1 receptor-associated kinase 1 (Homo sapiens, UniProt P51617). As to the kind of experiment: Binding affinity to recombinant N-terminal His-FLAG-GST-tagged IRAK1 (unknown origin) (194 to 712 residues) expressed in baculovirus infected Sf9 insect cells incubated for 1 hr by TR-FRET assay.
Test [6] deals with Tyrosine-protein kinase receptor UFO (Homo sapiens, UniProt P30530). As to the kind of experiment: Binding affinity to recombinant full-length N-terminal His-FLAG-GST-tagged AXL (unknown origin) expressed in baculovirus infected Sf9 insect cells incubated for 1 hr by TR-FRET assay.
The target of test [7] is Tyrosine-protein kinase ABL2 (Homo sapiens, UniProt P42684). As to the kind of experiment: Binding affinity to recombinant full-length N-terminal His-FLAG-GST-tagged ABL2 (unknown origin) (2 to 52 and 74 to 1182 residues) expressed in baculovirus infected Sf9 insect cells incubated for 1 hr by TR-FRET assay.
Test [8] addresses Serine/threonine-protein kinase 17A (Homo sapiens, UniProt Q9UEE5). Put plainly: Binding affinity to recombinant full length N-terminal His-FLAG-GST-tagged STK17A (unknown origin) expressed in baculovirus infected Sf9 insect cells incubated for 1 hr by TR-FRET assay.
Test [9] concerns the target Dual specificity mitogen-activated protein kinase kinase 1 (Homo sapiens, UniProt Q02750). As to the kind of experiment: Binding affinity to recombinant full-length N-terminal His-FLAG-tagged MAP2K1 (unknown origin) expressed in baculovirus infected Sf9 insect cells incubated for 1 hr by TR-FRET assay.
In test [10] the target is Protein-tyrosine kinase 2-beta (Homo sapiens, UniProt Q14289). Put plainly: Binding affinity to recombinant full-length N-terminal His-FLAG-tagged PTK2B (unknown origin) expressed in baculovirus infected Sf9 insect cells incubated for 1 hr by TR-FRET assay.
Test [11] addresses Tyrosine-protein kinase HCK (Homo sapiens, UniProt P08631). As to the kind of experiment: Binding affinity to recombinant full-length N-terminal His-FLAG-GST-tagged HCK (unknown origin) (25 to 526 residues) expressed in baculovirus infected Sf9 insect cells incubated for 1 hr by TR-FRET assay.
Test [12] deals with Serine/threonine-protein kinase Sgk3 (Homo sapiens, UniProt Q96BR1). As to the kind of experiment: Binding affinity to recombinant full-length N-terminal His-FLAG-GST-tagged SGK3 (unknown origin) (119 to 496 residues) expressed in baculovirus infected Sf9 insect cells incubated for 1 hr by TR-FRET assay.
In test [13] the target is Serine/threonine-protein kinase SIK2 (Homo sapiens, UniProt Q9H0K1). As to the kind of experiment: Binding affinity to recombinant full-length N-terminal His-FLAG-GST-tagged SIK2 (unknown origin) expressed in baculovirus infected Sf9 insect cells incubated for 1 hr by TR-FRET assay.
The target in test [14] is Maternal embryonic leucine zipper kinase (Homo sapiens, UniProt Q14680). Put plainly: Binding affinity to recombinant full-length N-terminal His-FLAG-GST-tagged MELK (unknown origin) (1 to 493 residues) expressed in baculovirus infected Sf9 insect cells incubated for 1 hr by TR-FRET assay.
Test [15] concerns the target Serine/threonine-protein kinase TAO3 (Homo sapiens, UniProt Q9H2K8). As to the kind of experiment: Binding affinity to recombinant human full length N-terminal GST-tagged TAOK3 expressed in baculovirus expression system using PKC-epsilon peptide as substrate incubated for 1 hr by TR-FRET assay.
The target in test [16] is Mitogen-activated protein kinase 10 (Homo sapiens, UniProt P53779). Put plainly: Binding affinity to recombinant full-length N-terminal His-FLAG-GST-tagged MAPK10 (unknown origin) expressed in baculovirus infected Sf9 insect cells incubated for 1 hr by TR-FRET assay.
Test [17] addresses Rho-associated protein kinase 1 (Homo sapiens, UniProt Q13464). As to the kind of experiment: Binding affinity to recombinant full-length N-terminal His-FLAG-GST-tagged ROCK1 (unknown origin) (1 to 477 residues) expressed in baculovirus infected Sf9 insect cells incubated for 1 hr by TR-FRET assay.
The target in test [18] is Serine/threonine-protein kinase N2 (Homo sapiens, UniProt Q16513). Put plainly: Binding affinity to recombinant full-length N-terminal His-FLAG-GST-tagged PKN2 (unknown origin) expressed in baculovirus infected Sf9 insect cells incubated for 1 hr by TR-FRET assay.
Test [19] has as its target Serine/threonine-protein kinase TAO1 (Homo sapiens, UniProt Q7L7X3). Put plainly: Binding affinity to recombinant full-length N-terminal His-FLAG-GST-tagged TAOK1 (unknown origin) (1 to 314 residues) expressed in baculovirus infected Sf9 insect cells incubated for 1 hr by TR-FRET assay.
Test [20] addresses Calcium/calmodulin-dependent protein kinase type II subunit alpha (Homo sapiens, UniProt Q9UQM7). As to the kind of experiment: Binding affinity to recombinant human full-length N-terminal GST-tagged CAMK2A expressed in baculovirus expression system using GS peptide as substrate incubated for 1 hr in presence of calmodulin by TR-FRET assay.
The target in test [21] is Serine/threonine-protein kinase 4 (Homo sapiens, UniProt Q13043). Put plainly: Binding affinity to recombinant full-length N-terminal His-FLAG-GST-tagged STK4 (unknown origin) expressed in baculovirus infected Sf9 insect cells incubated for 1 hr by TR-FRET assay.
Test [22] has as its target CDK8/Cyclin C (Homo sapiens, UniProt P49336). As to the kind of experiment: Binding affinity to recombinant human full length N-terminal GST-tagged CDK8 co-expressed with N-terminal GST-tagged CyclinC expressed in baculovirus expression system using RNA polymerase peptide as substrate incubated for 1 hr by TR-FRET assay.
Test [23] has as its target Dual specificity tyrosine-phosphorylation-regulated kinase 1B (Homo sapiens, UniProt Q9Y463). Put plainly: Binding affinity to recombinant full-length N-terminal His-FLAG-tagged DYRK1B (unknown origin) expressed in baculovirus infected Sf9 insect cells incubated for 1 hr by TR-FRET assay.
Test [24] has as its target Protein kinase C epsilon type (Homo sapiens, UniProt Q02156). As to the kind of experiment: Binding affinity to recombinant human full length N-terminal GST-tagged PRKCE expressed in baculovirus expression system using PKC peptide as substrate incubated for 1 hr by TR-FRET assay.

For two compounds, Kd results are on record in ChEMBL document CHEMBL4321812, “Structure-based rational design of staurosporine-based fluorescent probe with broad-ranging kinase affinity for kinase panel application” (Bioorg Med Chem Lett, 2019).

pKd: −log10 of the molar value.

Chain of Fibroblast growth factor receptor 3 (P22607 whole entry, the tested form may be a part): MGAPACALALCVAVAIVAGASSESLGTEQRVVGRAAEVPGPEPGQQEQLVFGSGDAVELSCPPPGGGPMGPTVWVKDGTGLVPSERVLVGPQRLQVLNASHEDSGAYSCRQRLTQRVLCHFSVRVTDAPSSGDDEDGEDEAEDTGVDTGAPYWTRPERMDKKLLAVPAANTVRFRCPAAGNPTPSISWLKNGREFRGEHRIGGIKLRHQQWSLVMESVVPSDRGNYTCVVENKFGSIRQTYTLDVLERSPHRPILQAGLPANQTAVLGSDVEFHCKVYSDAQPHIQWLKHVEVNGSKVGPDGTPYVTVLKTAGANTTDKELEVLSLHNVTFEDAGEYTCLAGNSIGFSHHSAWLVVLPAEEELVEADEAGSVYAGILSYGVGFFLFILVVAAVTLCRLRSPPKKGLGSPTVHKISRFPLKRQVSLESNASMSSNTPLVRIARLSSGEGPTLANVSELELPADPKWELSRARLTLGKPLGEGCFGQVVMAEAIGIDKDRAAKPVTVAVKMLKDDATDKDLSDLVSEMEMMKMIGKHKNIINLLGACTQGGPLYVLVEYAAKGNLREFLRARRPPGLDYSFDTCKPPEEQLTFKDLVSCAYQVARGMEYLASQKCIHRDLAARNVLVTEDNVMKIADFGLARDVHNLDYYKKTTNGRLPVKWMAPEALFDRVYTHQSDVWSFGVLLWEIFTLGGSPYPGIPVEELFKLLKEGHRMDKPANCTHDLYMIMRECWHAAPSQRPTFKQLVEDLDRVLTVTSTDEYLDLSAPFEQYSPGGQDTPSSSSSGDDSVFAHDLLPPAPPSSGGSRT
Chain of Serine/threonine-protein kinase SIK2 (Q9H0K1 whole entry, the tested form may be a part): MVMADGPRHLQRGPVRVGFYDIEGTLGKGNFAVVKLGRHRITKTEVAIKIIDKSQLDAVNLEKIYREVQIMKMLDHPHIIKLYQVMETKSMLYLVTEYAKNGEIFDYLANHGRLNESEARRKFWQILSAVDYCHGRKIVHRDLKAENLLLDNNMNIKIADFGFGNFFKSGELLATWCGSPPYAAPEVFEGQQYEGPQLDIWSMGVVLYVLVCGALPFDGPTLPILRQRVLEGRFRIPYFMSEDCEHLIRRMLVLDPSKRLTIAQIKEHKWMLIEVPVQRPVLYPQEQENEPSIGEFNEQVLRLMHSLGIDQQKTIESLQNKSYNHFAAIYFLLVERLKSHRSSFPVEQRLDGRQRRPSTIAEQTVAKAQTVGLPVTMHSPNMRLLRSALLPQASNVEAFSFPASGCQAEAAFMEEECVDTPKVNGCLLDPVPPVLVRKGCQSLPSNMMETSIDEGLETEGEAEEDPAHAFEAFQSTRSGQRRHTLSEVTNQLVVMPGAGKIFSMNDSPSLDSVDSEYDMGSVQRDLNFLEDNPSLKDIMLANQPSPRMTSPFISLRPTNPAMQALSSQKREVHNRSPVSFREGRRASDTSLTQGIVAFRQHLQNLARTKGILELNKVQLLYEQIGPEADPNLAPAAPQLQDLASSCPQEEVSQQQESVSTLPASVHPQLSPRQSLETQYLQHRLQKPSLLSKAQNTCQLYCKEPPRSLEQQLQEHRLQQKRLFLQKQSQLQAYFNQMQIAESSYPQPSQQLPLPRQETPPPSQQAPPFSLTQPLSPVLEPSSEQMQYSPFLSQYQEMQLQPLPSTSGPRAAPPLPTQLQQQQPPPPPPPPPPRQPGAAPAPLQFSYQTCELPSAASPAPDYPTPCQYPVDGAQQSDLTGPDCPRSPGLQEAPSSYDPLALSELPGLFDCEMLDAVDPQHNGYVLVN
Chain of Serine/threonine-protein kinase 4 (Q13043 whole entry): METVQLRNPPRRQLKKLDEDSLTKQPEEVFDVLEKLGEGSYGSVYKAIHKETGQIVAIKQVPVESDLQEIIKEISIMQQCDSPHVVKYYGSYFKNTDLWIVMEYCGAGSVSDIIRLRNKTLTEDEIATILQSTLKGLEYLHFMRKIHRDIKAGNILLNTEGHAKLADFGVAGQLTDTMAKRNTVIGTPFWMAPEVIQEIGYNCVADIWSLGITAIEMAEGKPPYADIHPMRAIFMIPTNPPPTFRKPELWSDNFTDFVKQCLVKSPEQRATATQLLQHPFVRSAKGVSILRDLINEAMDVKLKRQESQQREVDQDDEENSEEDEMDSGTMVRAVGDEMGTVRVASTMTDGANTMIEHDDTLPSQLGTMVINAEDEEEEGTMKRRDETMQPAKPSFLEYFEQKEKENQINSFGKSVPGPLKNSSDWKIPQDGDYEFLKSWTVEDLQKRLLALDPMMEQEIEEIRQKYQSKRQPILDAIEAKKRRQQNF
Chain of Fibroblast growth factor receptor 4 (P22455 whole entry, the tested form may be a part): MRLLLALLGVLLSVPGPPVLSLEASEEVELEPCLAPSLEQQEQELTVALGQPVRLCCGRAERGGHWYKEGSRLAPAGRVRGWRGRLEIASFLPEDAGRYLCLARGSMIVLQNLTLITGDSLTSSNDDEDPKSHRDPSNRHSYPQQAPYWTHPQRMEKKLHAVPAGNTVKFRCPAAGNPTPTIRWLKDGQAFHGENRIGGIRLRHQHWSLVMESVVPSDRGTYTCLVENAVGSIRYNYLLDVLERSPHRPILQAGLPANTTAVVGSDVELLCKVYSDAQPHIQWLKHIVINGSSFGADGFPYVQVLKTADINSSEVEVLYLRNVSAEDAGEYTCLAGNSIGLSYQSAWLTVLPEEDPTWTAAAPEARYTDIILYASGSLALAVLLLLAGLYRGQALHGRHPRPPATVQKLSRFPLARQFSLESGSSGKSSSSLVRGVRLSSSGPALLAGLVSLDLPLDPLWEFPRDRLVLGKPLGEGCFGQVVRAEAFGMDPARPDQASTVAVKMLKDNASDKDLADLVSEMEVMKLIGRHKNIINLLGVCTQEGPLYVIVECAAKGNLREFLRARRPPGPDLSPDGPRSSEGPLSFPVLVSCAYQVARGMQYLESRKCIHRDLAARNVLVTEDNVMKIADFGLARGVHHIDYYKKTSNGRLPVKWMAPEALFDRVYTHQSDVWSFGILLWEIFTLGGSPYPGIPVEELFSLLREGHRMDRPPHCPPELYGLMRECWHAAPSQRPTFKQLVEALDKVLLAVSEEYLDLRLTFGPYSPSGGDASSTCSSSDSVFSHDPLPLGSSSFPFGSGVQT
Chain of Protein-tyrosine kinase 2-beta (Q14289 whole entry, the tested form may be a part): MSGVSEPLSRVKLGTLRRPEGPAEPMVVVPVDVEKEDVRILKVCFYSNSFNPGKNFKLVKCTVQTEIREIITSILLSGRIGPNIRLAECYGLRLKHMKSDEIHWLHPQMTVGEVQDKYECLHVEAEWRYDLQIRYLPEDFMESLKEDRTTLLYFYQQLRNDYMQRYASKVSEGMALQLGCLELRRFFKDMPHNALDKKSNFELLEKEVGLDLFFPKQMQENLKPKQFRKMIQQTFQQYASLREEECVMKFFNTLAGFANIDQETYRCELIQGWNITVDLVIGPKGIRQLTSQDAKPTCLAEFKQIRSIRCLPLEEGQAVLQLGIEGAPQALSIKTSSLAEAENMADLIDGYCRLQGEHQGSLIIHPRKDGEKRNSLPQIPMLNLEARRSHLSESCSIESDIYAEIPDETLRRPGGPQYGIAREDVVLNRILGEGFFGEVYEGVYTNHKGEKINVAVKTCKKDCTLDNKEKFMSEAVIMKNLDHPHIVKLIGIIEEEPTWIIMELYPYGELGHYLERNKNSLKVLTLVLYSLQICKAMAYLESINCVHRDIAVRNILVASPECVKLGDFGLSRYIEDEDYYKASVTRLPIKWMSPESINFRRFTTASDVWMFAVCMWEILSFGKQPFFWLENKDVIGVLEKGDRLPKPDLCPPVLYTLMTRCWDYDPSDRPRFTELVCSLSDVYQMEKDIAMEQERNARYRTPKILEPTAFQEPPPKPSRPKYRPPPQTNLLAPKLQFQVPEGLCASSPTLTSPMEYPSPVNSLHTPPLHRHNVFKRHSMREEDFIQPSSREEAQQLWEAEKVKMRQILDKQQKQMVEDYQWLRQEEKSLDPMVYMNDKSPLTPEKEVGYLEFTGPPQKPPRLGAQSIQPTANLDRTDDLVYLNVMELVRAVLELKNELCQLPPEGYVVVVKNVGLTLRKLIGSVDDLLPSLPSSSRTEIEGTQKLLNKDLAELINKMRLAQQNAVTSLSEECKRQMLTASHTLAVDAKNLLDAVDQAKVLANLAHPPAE
Chain of Maternal embryonic leucine zipper kinase (Q14680 whole entry, the tested form may be a part): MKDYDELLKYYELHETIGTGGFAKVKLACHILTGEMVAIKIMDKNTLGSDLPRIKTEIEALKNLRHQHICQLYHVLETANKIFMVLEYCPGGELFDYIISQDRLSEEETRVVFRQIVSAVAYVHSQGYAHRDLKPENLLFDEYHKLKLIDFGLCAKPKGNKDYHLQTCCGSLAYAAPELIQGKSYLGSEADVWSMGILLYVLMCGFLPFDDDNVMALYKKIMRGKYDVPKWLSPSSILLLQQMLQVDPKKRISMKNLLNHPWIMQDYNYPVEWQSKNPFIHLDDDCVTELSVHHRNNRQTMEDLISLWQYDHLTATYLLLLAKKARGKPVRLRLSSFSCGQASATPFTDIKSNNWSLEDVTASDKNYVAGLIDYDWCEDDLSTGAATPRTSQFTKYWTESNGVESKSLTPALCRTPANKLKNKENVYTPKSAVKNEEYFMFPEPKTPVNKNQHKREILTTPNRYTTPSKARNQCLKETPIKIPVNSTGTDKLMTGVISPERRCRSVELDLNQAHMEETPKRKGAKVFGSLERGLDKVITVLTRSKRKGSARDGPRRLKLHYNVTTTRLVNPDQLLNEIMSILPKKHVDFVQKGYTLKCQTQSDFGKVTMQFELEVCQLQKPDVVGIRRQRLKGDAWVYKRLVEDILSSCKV
Chain of Dual specificity mitogen-activated protein kinase kinase 1 (Q02750 whole entry): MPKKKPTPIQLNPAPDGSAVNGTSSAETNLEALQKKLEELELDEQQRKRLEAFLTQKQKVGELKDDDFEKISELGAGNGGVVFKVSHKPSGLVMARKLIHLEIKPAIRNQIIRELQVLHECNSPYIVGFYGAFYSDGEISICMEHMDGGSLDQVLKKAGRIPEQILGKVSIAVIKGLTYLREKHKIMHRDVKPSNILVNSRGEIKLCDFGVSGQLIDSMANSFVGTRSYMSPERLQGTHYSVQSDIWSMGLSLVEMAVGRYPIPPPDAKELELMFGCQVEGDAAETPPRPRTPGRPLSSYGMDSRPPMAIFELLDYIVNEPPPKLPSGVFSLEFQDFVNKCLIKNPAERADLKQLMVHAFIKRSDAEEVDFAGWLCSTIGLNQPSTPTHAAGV

Take `CO[C@@H]1[C@H](N(C)CCOCCOCCOCCNC(=O)CCC2=[N+]3C(=Cc4c(C)cc(C)n4[B-]3(F)F)C=C2)C[C@H]2O[C@]1(C)n1c3ccccc3c3c4c(c5c6ccccc6n2c5c31)C(=O)NC4`: the negative-log Kd (pKd) is 7.44 in [1]; 6.01 in test [2]; 5.83 in [3]; 6.07 in test [4]; 6.22 in test [5]; 6.25 in test [6]. Besides, the negative-log Kd (pKd) in test [7] was 6.02; in test [8], 6.44; in test [9] it was 6.37; in test [10] it was 7.14; in [11], 6.55; in test [12] it was 6.47. Also, the pKd in test [13] is 8.52; in test [14], 7.39; in test [15] it was 6.53; in test [16] it was 6.61; in test [17], 7.59; in [18], 8.40. Moreover, the negative-log Kd (pKd) in test [19] is 7.82; in [20], 8.05; in test [21], 8.40; in [22], 6.83; in test [23], 7.40; in [24], 7.82.
Take `CO[C@@H]1[C@H](NCCOCCOCCOCCNC(=O)CCC2=[N+]3C(=Cc4c(C)cc(C)n4[B-]3(F)F)C=C2)C[C@H]2O[C@]1(C)n1c3ccccc3c3c4c(c5c6ccccc6n2c5c31)C(=O)NC4`: the pKd in test [1] was 7.80; in test [2] it was 6.35; in test [3] it was 6.14; in test [4] it was 6.39; in test [5], 6.52; in test [6], 6.50. Further, the pKd is 6.27 in test [7]; 6.59 in test [8]; 6.48 in test [9]; 7.23 in test [10]; 6.58 in [11]; 6.49 in [12]. For the same compound, the pKd was 8.40 in [13]; 7.30 in test [14]; 6.44 in [15]; 6.50 in test [16]; 7.46 in [17]; 8.22 in [18]. Further, the pKd in [19] is 7.60; in test [20], 7.82; in test [21] it was 8.15; in test [22] it was 6.52; in test [23], 6.97; in test [24], 7.39.

A word on the pKd: it is −log10 of the Kd, conventionally taken in molar units.
